Data taken from US20040132739A1, “Combination of a gelatinase inhibitor and an anti-tumor agent, and uses thereof” (priority 2001, published 2004).

Columns and labels:
[1] = toxicological tests over a wide range of doses; format: in vivo; conditions: side effects like those of broad-spectrum MMP inhibitors
Excerpt: Thus, no dose-limiting toxicities were expected with RO 28-2653, and accordingly no additional benefit from co-treatment with cytostatic/cytotoxic drugs was expected. However, to explore also the distant possibility of an additional benefit from combination treatment, such studies were initiated and conducted in various animal models. The models and cytostatic/cytotoxic drugs were chosen to reflect as broad a spectrum of oncological indications and clinically active treatment principles as possible.

HOC-22 ovarian carcinoma = assay: human orthotopic ovarian carcinoma mouse xenograft model HOC-22, survival; format: in vivo; conditions: versus vehicle/control mice (median survival 30 days); RO 28-2653 45 mg/kg oral daily six times a week, day 7 to 21; Cisplatin 4 doses of 3 mg/kg i.v. every 4 days from day 7
Procedure: DDP=Cisplatin. […] Statistics was calculated using the log rank test. […] Cisplatin treatment consisted of 4 doses of 3 mg/kg i.v. per mouse once every 4 days, starting on day 7.

[2] = test system: MatLyLu prostate carcinoma; assay: rat syngeneic orthotopic prostate carcinoma model MatLyLu, primary tumor size; format: in vivo; conditions: as compared to vehicle-treated animals; RO 28-2653 100 mg/kg oral daily, Etoposide 25 mg/m^2 i.p. once daily, day 6 to day 17
Procedure: Etoposide was given intraperitoneally once daily, from day 6 to day 17, at a dose of 25 mg/m^2.

[3] = test system: PancTul pancreas carcinoma; conditions: for inhibition of primary tumor growth: RO 28-2653 45 mg/kg oral daily day 7 to 30; for inhibition of primary tumor growth / Volume Primary tumor (Vm) / average number of metastases per animal: Gemcitabine 2.2 mg/kg i.p. every second day, day 7 to 30; for Volume Primary tumor (Vm) / average number of metastases per animal: RO 28-2653 45 mg/kg oral daily; for Metastasis Diaphragm / Metastasis Kidneys/Adrenal gland (capsule) / Metastasis Ligament of the uterus/testis (serosa), seminal vesicles / Metastasis Liver hilus / Metastasis Liver, in parenchyme / Metastasis Liver, on serosa / Metastasis Lung/Mediastinum / Metastasis Lymph nodes in mesentery / Metastasis Mesentery 3-20 metastasis(1-18 mm^3) / Metastasis Mesentery < 3 metastasis(^2 mm^3) / Metastasis Pelvis / Metastasis Site of surgical incision Large 80-280 mm^3 / Metastasis Site of surgical incision Medium < 50 mm^3 / Metastasis Site of surgical incision Small < 10 mm^3 / Metastasis Spleen (serosa), gastrosplenic ligament: animals with metastasis / animals in group; for Necrosis Primary tumor: animals with necrosis / animals in group; for Tumor take rate Primary tumor: animals with tumor / animals in group; for Body weight (m): mean change (spread)
Procedure: The activity of RO 28-2653 in combination with Gemcitabine was evaluated in the human orthotopic pancreas carcinoma mouse xenograft model PancTul with primary tumor size and number and size of metastases as endpoints.
Effect of the combination of RO 28-2653 and Gemcitabine on primary tumor volume in the orthotopic PancTul pancreas cancer xenograft model. Mice were treated with RO 28-2653 with daily oral doses of 45 mg/kg from day 7 until day 30. Gemcitabine treatment consisted of one intraperitoneal dose of 2.2 mg/kg every second day from day 7 to day 30.
Effect of the combination of RO 28-2653 and Gemcitabine on metastatic spread in the orthotopic PancTul pancreas cancer xenograft model. Mice were treated with RO 28-2653 with daily oral doses of 45 mg/kg from day 7 until day 30. Gemcitabine treatment consisted of one intraperitoneal dose of 2.2 mg/kg every second day from day 7 to day 30.

SMILES	increase in lifespan (HOC-22 ovarian carcinoma) [%]	inhibition of primary tumor growth [2] [%]	inhibition of primary tumor growth [3] [%]	Volume Primary tumor (Vm) [3]	average number of metastases per animal [3] [metastases per animal]	Metastasis Diaphragm [3]	Metastasis Kidneys/Adrenal gland (capsule) [3]	Metastasis Ligament of the uterus/testis (serosa), seminal vesicles [3]	Metastasis Liver hilus [3]	Metastasis Liver, in parenchyme [3]	Metastasis Liver, on serosa [3]	Metastasis Lung/Mediastinum [3]	Metastasis Lymph nodes in mesentery [3]	Metastasis Mesentery 3-20 metastasis(1-18 mm^3) [3]	Metastasis Mesentery < 3 metastasis(^2 mm^3) [3]	Metastasis Pelvis [3]	Metastasis Site of surgical incision Large 80-280 mm^3 [3]	Metastasis Site of surgical incision Medium < 50 mm^3 [3]	Metastasis Site of surgical incision Small < 10 mm^3 [3]	Metastasis Spleen (serosa), gastrosplenic ligament [3]	further results
O=C1NC(=O)C(c2ccc(-c3ccccc3)cc2)(N2CCN(c3ccc([N+](=O)[O-])cc3)CC2)C(=O)N1 [RO 28-2653, 5-(4-biphenyl)-5-[N-(4-nitrophenyl)piperazinyl] barbituric acid]	63	86	66	Vm = 112 (±46) mm^3	2.5	3/13	1/13	0/13	4/13	3/13	2/13	2/13	2/13	5/13	0/13	0/13	6/13	3/13	2/13	0/13	side effects [1]: no side effects; Necrosis Primary tumor [3]: 1/13; Tumor take rate Primary tumor [3]: 13/13; Body weight (m) [3]: m = −5 (±4)%
N.N.[Cl][Pt][Cl] [Cisplatin, reference compound]	95																				
Nc1ccn([C@@H]2O[C@H](CO)[C@@H](O)C2(F)F)c(=O)n1 [Gemcitabine, reference compound]			85	Vm = 51 (±14) mm^3	0.4	0/13	0/13	0/13	0/13	1/13	1/13	0/13	0/13	0/13	0/13	0/13	0/13	1/13	2/13	0/13	Necrosis Primary tumor [3]: 4/13; Tumor take rate Primary tumor [3]: 13/13; Body weight (m) [3]: m = −2 (±5)%
COc1cc([C@@H]2c3cc4c(cc3[C@@H](O[C@@H]3O[C@@H]5CO[C@@H](C)O[C@H]5[C@H](O)[C@H]3O)[C@H]3COC(=O)[C@H]23)OCO4)cc(OC)c1O [Etoposide, reference compound]		35																			
